Assay results as given in patent EP4755886A1 (Chengdu Chipscreen Pharmaceutical Ltd., priority 2023, dated 2025).

Key:
PK experiment in mice = conditions: female, BALB/c, mouse, plasma, po, 10 mg/kg
Procedure: Experimental materials: the experimental animals were healthy adult female BALB/c mice (provided by Sichuan Vital River Laboratory Animal Technology Co., Ltd.).
Administration mode and sample collection in mice: BALB/c female mice received oral intragastrical administration (10 mg/kg, vehicle: 0.5% methylcellulose/0.2% Tween 80), and 60 µL of whole blood from the venous plexus of the fundus of the mice at different time points was collected at 0.25 h, 0.5 h, 1 h, 2 h, 4 h, 6 h, 8 h, and 24 h after administration and centrifuged at 4000 rpm for 6 min to collect plasma.
10 µL of mouse plasma sample was added to 190 µL of acetonitrile solution containing an internal standard to precipitate protein. The mixture was vortexed for 10 min and centrifuged at 4000 rpm for 10 min. The supernatant was collected and added to a 96-well plate. The samples were analyzed by LC-MS/MS. The drug concentrations in the plasma of mice at different time points after intragastric administration of the example compounds were measured by an LC-MS/MS method, and the related pharmacokinetic parameters were calculated, such that the pharmacokinetic behavior of the compounds in the mice was studied, and the pharmacokinetic characteristics were evaluated.

MTAP^-/- HCT-116 cells = assay: Cell proliferation (MTS), MTAP-/- HCT-116; format: cell-based, human; conditions: for Selectivity: HCT116 WT IC50 relative to HCT116 MTAP-/- IC50; for IC50: Homo sapiens, 240 h, MTAP-/- HCT-116, 10 days with compound, MTS reading, read-out: IC50 HCT116 MTAP-/-
Method in brief: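 MTAP-/- (CRISPR/Cas9 biallelic knockout) or wild-type HCT-116 cells seeded at 100 cells/well, treated next day with 8-point 3-fold dilutions (top 20 µM) for 10 days at 37 °C, 5% CO2. Viability read by MTS; IC50 from four-parameter logistic fit of inhibition rate vs log concentration.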

wild-type HCT-116 cells = assay: Cell proliferation (MTS), wild-type HCT-116; format: cell-based; conditions: Homo sapiens, 240 h; wild-type HCT-116, 10 days with compound, MTS reading; read-out: IC50 HCT116 WT
Method in brief: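 Wild-type HCT-116 cells were seeded at 100 cells/well in McCoy's 5A/10% FBS. From day 1 they were treated with compound in 3-fold dilutions (initial 20 µM, 8 points) for 10 days at 37° C. Proliferation was read by MTS on day 11, and IC50 was obtained from a four-parameter logistic fit.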

hERG = biological target: T1, hERG (Homo sapiens, UniProt Q12809); assay: hERG test (Predictor hERG Fluorescence Polarization Assay Kit); format: binding; conditions: for inhibition at 3.5 h, 10 µM: human, probe Predictor hERG Tracer Red, 10 µM test substance, three duplicate wells; for IC50: only 10 µM tested
T1 construct: purchased ThermoFisher Scientific PV5365
T1 sequence (Q12809 whole entry): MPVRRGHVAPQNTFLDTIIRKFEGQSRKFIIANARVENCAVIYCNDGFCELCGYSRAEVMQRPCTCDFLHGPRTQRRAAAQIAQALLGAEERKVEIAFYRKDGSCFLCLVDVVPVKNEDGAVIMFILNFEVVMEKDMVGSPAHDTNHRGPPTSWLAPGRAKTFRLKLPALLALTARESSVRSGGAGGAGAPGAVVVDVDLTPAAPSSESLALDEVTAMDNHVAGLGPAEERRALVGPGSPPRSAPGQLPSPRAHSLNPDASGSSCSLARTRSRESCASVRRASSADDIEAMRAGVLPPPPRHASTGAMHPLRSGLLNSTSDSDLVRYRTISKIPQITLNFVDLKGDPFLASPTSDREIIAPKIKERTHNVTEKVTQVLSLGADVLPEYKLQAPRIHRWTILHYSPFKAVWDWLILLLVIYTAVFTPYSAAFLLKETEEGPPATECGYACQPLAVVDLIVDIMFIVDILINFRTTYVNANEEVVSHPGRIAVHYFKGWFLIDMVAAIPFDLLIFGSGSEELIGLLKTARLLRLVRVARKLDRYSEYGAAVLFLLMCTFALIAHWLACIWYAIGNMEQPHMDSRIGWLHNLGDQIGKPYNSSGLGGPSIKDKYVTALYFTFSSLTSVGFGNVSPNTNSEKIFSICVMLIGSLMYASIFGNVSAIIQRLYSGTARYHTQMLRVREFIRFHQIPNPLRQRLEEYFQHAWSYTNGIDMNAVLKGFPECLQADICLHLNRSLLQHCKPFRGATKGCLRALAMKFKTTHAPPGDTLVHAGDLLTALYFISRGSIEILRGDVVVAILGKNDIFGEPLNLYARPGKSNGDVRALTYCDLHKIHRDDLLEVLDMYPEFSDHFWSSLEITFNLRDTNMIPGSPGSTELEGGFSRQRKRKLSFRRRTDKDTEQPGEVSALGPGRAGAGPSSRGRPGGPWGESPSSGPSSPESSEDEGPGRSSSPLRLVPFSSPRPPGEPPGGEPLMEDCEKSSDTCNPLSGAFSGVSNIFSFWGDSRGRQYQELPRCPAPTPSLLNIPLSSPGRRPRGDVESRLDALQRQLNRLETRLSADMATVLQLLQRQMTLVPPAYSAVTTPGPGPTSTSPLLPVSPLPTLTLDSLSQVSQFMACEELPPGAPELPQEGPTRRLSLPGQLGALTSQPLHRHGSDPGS
Procedure: Predictor™ hERG Fluorescence Polarization Assay Kit (ThermoFisher Scientific, PV5365).
The procedures in the kit instructions were followed: 4× Predictor™ hERG Tracer Red, 4× E-4031, and 4× test substance solutions (final assay concentration: 10 µM) were prepared in advance. 5 µL Predictor™ hERG FP Assay Buffer and 5 µL Predictor™ hERG Membrane were added sequentially to the Assay Blank group in a 384-well plate. 2.5 µL Predictor™ hERG FP Assay Buffer, 2.5 µL of 4× E-4031, and 2.5 µL of 4× test substance were added to the negative control group, the positive control group, and the test substance group, respectively, and then 5 µL Predictor™ hERG Membrane and 2.5 µL of 4× Predictor™ hERG Tracer Red were sequentially added. The total volume of the experimental system was 10 µL, and three duplicate wells were set for each group. After loading, the plate was gently tapped to mix well and incubated at room temperature (25 °C) in the dark for 3.5 h. After the incubation was completed, the fluorescence polarization value mP was measured on a microplate reader, and G Factor was 2.14.
The inhibition rate of the test substance was calculated using the following formula: [formula]

Compound | AUC(0-t) (PK experiment in mice) | Cmax (PK experiment in mice) | Selectivity (MTAP^-/- HCT-116 cells) | IC50 (MTAP^-/- HCT-116 cells) | IC50 (wild-type HCT-116 cells) | inhibition at 3.5 h, 10 µM (hERG) | IC50 (hERG)
CN(C(=O)c1ccc2nc(N)c3cnn(C)c3c2c1)C1COc2cc(C#Cc3cnn(C(F)F)c3)ccc21 (stereo not shown) [Compound 30, 4-amino-N-(6-((1-(difluoromethyl)-1H-pyrazol-4-yl)ethynyl)-2,3-dihydrobenzofuran-3-yl)-N,1-dimethyl-1H-pyrazolo[4,3-c]quinoline-8-carboxamide] | 12600 ± 1360 ng·h/mL | 984 ± 123 ng/mL | 201 | 8.7 nM | 1750 nM |  | 
CN1CCn2c(C#Cc3ccc4c(c3)OC[C@H]4N(C)C(=O)c3cc4c(cc3F)nc(N)c3cnn(C)c34)cnc2C1 [Compound 46A, (S)-4-amino-7-fluoro-N,1-dimethyl-N-(6-((7-methyl-5,6,7,8-tetrahydroimidazo[1,2-a]pyrazin-3-yl)ethynyl)-2,3-dihydrobenzofuran-3-yl)-1H-pyrazolo[4,3-c]quinoline-8-carboxamide] |  |  | 144 | 1.1 nM | 158 nM | 43.9 ± 18.8% | > 10 µM
Cc1c(C#Cc2ccc3c(c2)OC[C@H]3N(C)C(=O)c2cc3c4c(c(N)nc3cc2Cl)COC4)cnn1C [Compound 52A, (S)-4-amino-7-chloro-N-(6-((1,5-dimethyl-1H-pyrazol-4-yl)ethynyl)-2,3-dihydrobenzofuran-3-yl)-N-methyl-1,3-dihydrofuro[3,4-c]quinoline-8-carboxamide] | 14200 ± 2430 ng·h/mL | 1500 ± 313 ng/mL | 152 | 3.2 nM | 487 nM | 10.4 ± 49.1% | > 10 µM
CN(C(=O)c1cc2c3c(c(N)nc2cc1Cl)COC3)[C@@H]1COc2cc(C#Cc3cccnc3F)ccc21 [Compound 61A, (S)-4-amino-7-chloro-N-(6-((2-fluoropyridin-3-yl)ethynyl)-2,3-dihydrobenzofuran-3-yl)-N-methyl-1,3-dihydrofuro[3,4-c]quinoline-8-carboxamide] | 22200 ± 2710 ng·h/mL | 2080 ± 299 ng/mL | 91 | 7 nM | 640 nM |  | 
CN(C(=O)c1cc2c3c(c(N)nc2cc1Cl)COC3)[C@@H]1COc2cc(C#Cc3cnc4n3CCC4)ccc21 [Compound 75A, (S)-4-amino-7-chloro-N-(6-((6,7-dihydro-5H-pyrrolo[1,2-a]imidazol-3-yl)ethynyl) -2,3-dihydrobenzofuran-3-yl)-N-methyl-1,3-dihydrofuro[3,4-c]quinoline-8-carbo xamide] | 27000 ± 4260 ng·h/mL | 5010 ± 846 ng/mL | 106 | 4 nM | 424 nM |  | 
CN(C(=O)c1cc2c3c(c(N)nc2cc1Cl)COC3)[C@@H]1COc2cc(Br)ccc21 [Reference Example 4, reference compound] | 3270 ± 588 ng·h/mL | 649 ± 45 ng/mL |  |  |  |  | 
CN(C(=O)c1cc2c3c(c(N)nc2cc1Cl)COC3)[C@@H]1COc2cc(C#Cc3cnc4n3CCCC4)ccc21 [Compound 74A, (S)-4-amino-7-chloro-N-methyl-N-(6-((5,6,7,8-tetrahydroimidazo[1,2-a]pyridin-3-yl)ethynyl)-2,3-dihydrobenzofuran-3-yl)-1,3-dihydrofuro [3,4-c] quinoline-8-carb oxamide] | 14500 ± 1760 ng·h/mL | 2810 ± 780 ng/mL | 175 | 2.7 nM | 472 nM |  | 
CN(C(=O)c1cc2c3c(c(N)nc2cc1Cl)COC3)C1COc2cc(C#Cc3cnn(C)c3)ccc21 (stereo not shown) [Compound 40, 4-amino-7-chloro-N-methyl-N-(6-((1-methyl-1H-pyrazol-4-yl)ethynyl)-2,3-dihydrobenzofuran-3-yl)-1,3-dihydrofuro[3,4-c]quinoline-8-carboxamide] |  |  | 252 | 5.8 nM | 1460 nM | 22% | > 10 µM
CN(C(=O)c1ccc2nc(N)c3cnn(C)c3c2c1)C1COc2cc(C3CC3)ccc21 (stereo not shown) [Reference Example 3, reference compound] | 5130 ± 2920 ng·h/mL | 741 ± 601 ng/mL |  |  |  |  | 
CN(C(=O)c1cc2c(cc1F)nc(N)c1cnn(C)c12)[C@@H]1COc2cc(C#Cc3cnc4n3CCC4)ccc21 [Compound 84A, (S)-4-amino-N-(6-((6,7-dihydro-5H-pyrrolo[1,2-a]imidazol-3-yl)ethynyl)-2,3-dihydrobenzofuran-3-yl)-7-fluoro-N,1-dimethyl-1H-pyrazolo[4,3-c]quinoline-8-carbo xamide] |  |  | 55 | 2.6 nM | 143 nM |  | 
CN(C(=O)c1cc2c(cc1F)nc(N)c1cnn(C)c12)C1COc2cc(C#Cc3cnccc3C(F)F)ccc21 (stereo not shown) [Compound 42, 4-amino-N-(6-((4-(difluoromethyl)pyridin-3-yl)ethynyl)-2,3-dihydrobenzofuran-3-yl)-7-fluoro-N,1-dimethyl-1H-pyrazolo[4,3-c]quinoline-8-carboxamide] |  |  | 42 | 18.5 nM | 785 nM |  | 
CN(C(=O)c1cc2c3c(c(N)nc2cc1Cl)COC3)[C@@H]1COc2cc(C#Cc3cnn(C4CCC4)c3)ccc21 [Compound 90A, (S)-4-amino-7-chloro-N-(6-((1-cyclobutyl-1H-pyrazol-4-yl)ethynyl)-2,3-dihydrobenzofuran-3-yl)-N-methyl-1,3-dihydrofuro[3,4-c]quinoline-8-carboxamide] |  |  | 98 | 12 nM | 1180 nM |  | 
CN(C(=O)c1cc2c3c(c(N)nc2cc1Cl)COC3)C1COCc2cc(C#Cc3cnn(C4CC4)c3)ccc21 (stereo not shown) [Compound 87, 4-amino-7-chloro-N-(7-((1-cyclopropyl-1H-pyrazol-4-yl)ethynyl)isochroman-4-yl) -N-methyl-1,3-dihydrofuro[3,4-c]quinoline-8-carboxamide] |  |  | 56 | 9 nM | 504 nM |  | 
Cc1nn(C)cc1C#Cc1ccc2c(c1)OC[C@H]2N(C)C(=O)c1ccc2nc(N)c3cnn(C)c3c2c1 [Compound 49A, (S)-4-amino-N-(6-((1,3-dimethyl-1H-pyrazol-4-yl)ethynyl)-2,3-dihydrobenzofuran-3-yl)-N,1-dimethyl-1H-pyrazolo[4,3-c]quinoline-8-carboxamide] |  |  | 210 | 1.8 nM | 378 nM |  | 
CN(C(=O)c1cc2c(cc1Cl)nc(N)c1cnn(C)c12)C1COc2cc(C#Cc3cnn(C4CC4)c3)ccc21 (stereo not shown) [Compound 8, 4-amino-7-chloro-N-(6-((1-cyclopropyl-1H-pyrazol-4-yl)ethynyl)-2,3-dihydrobenzofuran-3-yl)-N,1-dimethyl-1H-pyrazolo[4,3-c]quinoline-8-carboxamide] |  |  | 47 | 3 nM | 141 nM |  | 
Cc1ncccc1C#Cc1ccc2c(c1)OCC2N(C)C(=O)c1cc2c(cc1F)nc(N)c1cnn(C)c12 (stereo not shown) [Compound 45, 4-amino-7-fluoro-N,1-dimethyl-N-(6-((2-methylpyridin-3-yl)ethynyl)-2,3-dihydrobenzofuran-3-yl)-1H-pyrazolo[4,3-c]quinoline-8-carboxamide] |  |  | 111 | 5.9 nM | 654 nM | 21% | > 10 µM
